Experimental findings from PubChem BioAssay (NCI) are described below.

Test systems include MDA-MB-231 breast; NCI-H522 lung; HT29 colon; OVCAR-3 ovarian; U251 CNS; CCRF-CEM leukemia; SW-620 colon; SK-MEL-2 melanoma; K-562 leukemia; SN12C renal.
What all share (assay): NCI tumour cell line growth inhibition, 48 h

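Values below derive from 48-hour exposures of cells grown in 96-well plates, with endpoints linearly interpolated between the two concentrations bracketing the appropriate inhibition level. The concentration for 50% growth inhibition is given as GI50. TGI marks complete inhibition of growth.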

As to `CCOC(=O)n1cc(C2=C(c3ccc(OC)c(OC)c3)COC2=O)c2ccccc21`, the GI50 was 160 nM in the experiment with MDA-MB-231 breast; 38.9 nM in the experiment with NCI-H522 lung; 36.4 nM with HT29 colon; 33.2 nM in the experiment with OVCAR-3 ovarian; 53.6 nM with U251 CNS; 36.7 nM in the experiment with CCRF-CEM leukemia. Moreover, the GI50 is 41.7 nM in the experiment with SW-620 colon, 402 nM in the experiment with SK-MEL-2 melanoma, 32.5 nM in the experiment on K-562 leukemia and 68.1 nM in the experiment on SN12C renal. Further, the TGI with MDA-MB-231 breast was greater than 100000 nM; in the experiment with NCI-H522 lung, greater than 33300 nM; with HT29 colon, greater than 100000 nM; with OVCAR-3 ovarian, 114 nM; in the experiment on U251 CNS it was greater than 100000 nM; in the experiment with CCRF-CEM leukemia, greater than 100000 nM. The TGI in the experiment on SW-620 colon, with SK-MEL-2 melanoma, in the experiment with K-562 leukemia and in the experiment on SN12C renal was greater than 100000 nM each time.

Consider `NC(N)=NS(=O)(=O)c1ccc(N=Nc2c(O)c(C(=O)O)cc3ccccc23)cc1`, for which the TGI in the experiment with MDA-MB-231 breast, in the experiment with NCI-H522 lung, in the experiment with HT29 colon, with OVCAR-3 ovarian, in the experiment on U251 CNS and in the experiment with CCRF-CEM leukemia was greater than 100000 nM in each case. In addition, the TGI in the experiment with SW-620 colon, with SK-MEL-2 melanoma, in the experiment with K-562 leukemia and in the experiment with SN12C renal was greater than 100000 nM in each case.

Take `O=C1OCC2=C1C(c1cccc(Br)c1)c1cc3c(cc1N2CCO)OCCO3` (stereo not given): the GI50 with MDA-MB-231 breast was 209 nM; in the experiment on NCI-H522 lung, 11.6 nM; in the experiment with HT29 colon it was 50.7 nM; in the experiment with OVCAR-3 ovarian it was 34.5 nM; with U251 CNS it was 59.6 nM; in the experiment with CCRF-CEM leukemia, 76.3 nM. In addition, the GI50 is 52.7 nM in the experiment with SW-620 colon, 42.6 nM with SK-MEL-2 melanoma, 55 nM with K-562 leukemia and 188 nM in the experiment with SN12C renal. Moreover, the TGI with MDA-MB-231 breast is 2850 nM; with NCI-H522 lung it was 47.8 nM; in the experiment with HT29 colon it was 233 nM; in the experiment on OVCAR-3 ovarian, 96.7 nM; in the experiment on U251 CNS it was 6070 nM; in the experiment on CCRF-CEM leukemia it was greater than 26300 nM. Besides, the TGI in the experiment with SW-620 colon is greater than 27900 nM; with SK-MEL-2 melanoma, 1290 nM; with K-562 leukemia, greater than 27700 nM; in the experiment with SN12C renal it was greater than 27100 nM.

`COc1ccc(C(c2cc(OC)c(OC)c(OC)c2)n2cncn2)cc1O` (stereo not given): the GI50 in the experiment on MDA-MB-231 breast is 1500 nM; with NCI-H522 lung, 395 nM; with HT29 colon, 330 nM; in the experiment on OVCAR-3 ovarian, 323 nM; in the experiment on U251 CNS, 446 nM; in the experiment with CCRF-CEM leukemia, 402 nM. For the same compound, the GI50 with SW-620 colon was 431 nM; in the experiment on SK-MEL-2 melanoma it was 361 nM; in the experiment on K-562 leukemia it was 427 nM; in the experiment on SN12C renal, 853 nM. The TGI in the experiment with MDA-MB-231 breast is greater than 100000 nM; in the experiment on NCI-H522 lung, 2370 nM; in the experiment on HT29 colon, 1900 nM; in the experiment on OVCAR-3 ovarian, 1480 nM; with U251 CNS it was greater than 100000 nM; with CCRF-CEM leukemia, greater than 100000 nM. In addition, the TGI in the experiment on SW-620 colon, with SK-MEL-2 melanoma, in the experiment on K-562 leukemia and with SN12C renal was greater than 100000 nM each time.

`COC(=O)/C=C/c1cc(OC(C)=O)c2c(c1)[C@@H](C(=O)OC)[C@H](c1ccc(OC(C)=O)c(OC(C)=O)c1)O2`: the GI50 in the experiment on MDA-MB-231 breast is 305 nM; with NCI-H522 lung it was 34.8 nM; with HT29 colon it was 1680 nM; with OVCAR-3 ovarian, 26.7 nM; with U251 CNS it was 114 nM; with CCRF-CEM leukemia, 39 nM. The GI50 in the experiment on SW-620 colon is 41.8 nM; in the experiment on SK-MEL-2 melanoma it was 268 nM; with K-562 leukemia it was 37.8 nM; in the experiment on SN12C renal, 121 nM. Further, the TGI was 34400 nM in the experiment on MDA-MB-231 breast; 2130 nM with NCI-H522 lung; greater than 58700 nM with HT29 colon; 68.1 nM with OVCAR-3 ovarian; 41000 nM in the experiment on U251 CNS; 34400 nM in the experiment with CCRF-CEM leukemia. For the same compound, the TGI is greater than 100000 nM with SW-620 colon, 70000 nM with SK-MEL-2 melanoma, greater than 49200 nM in the experiment with K-562 leukemia and 99700 nM in the experiment with SN12C renal.

On to `C=C(C)C(=O)O[C@@H]1C[C@@]2(C)O[C@@H]2C[C@H](O)/C(C)=C/[C@H]2OC(=O)C(=C)[C@@H]21`, for which the TGI is greater than 100000 nM with MDA-MB-231 breast; 31600 nM in the experiment on NCI-H522 lung; greater than 100000 nM with HT29 colon; greater than 100000 nM with OVCAR-3 ovarian; greater than 100000 nM in the experiment with U251 CNS; 63600 nM with CCRF-CEM leukemia. In addition, the TGI with SW-620 colon was 38900 nM; in the experiment with SK-MEL-2 melanoma it was greater than 100000 nM; in the experiment on K-562 leukemia, greater than 100000 nM; in the experiment on SN12C renal, greater than 100000 nM.

In the case of `O=C1c2ccccc2C(=O)c2c(/C=C\N3CCCCC3)ccnc21`, the TGI was found to be 73300 nM in the experiment on MDA-MB-231 breast; 13300 nM with NCI-H522 lung; 15100 nM with HT29 colon; 9530 nM in the experiment on OVCAR-3 ovarian; 14500 nM with U251 CNS; 47600 nM with CCRF-CEM leukemia. For the same compound, the TGI is 4480 nM in the experiment on SW-620 colon, 14000 nM in the experiment with SK-MEL-2 melanoma, 36000 nM with K-562 leukemia and 4140 nM in the experiment on SN12C renal.

Regarding `CN(C)c1ccc(/C=N/NC(=S)Nc2ccccc2)cc1`, the TGI in the experiment on MDA-MB-231 breast, with NCI-H522 lung, in the experiment on HT29 colon, in the experiment with OVCAR-3 ovarian, in the experiment with U251 CNS and with CCRF-CEM leukemia was greater than 100000 nM throughout. Further, the TGI in the experiment on SW-620 colon, in the experiment on SK-MEL-2 melanoma, in the experiment with K-562 leukemia and in the experiment with SN12C renal was greater than 100000 nM each time.
